Laboratory results taken from patent EP4729529A1, “PREPARATION OF PEPTIDE INHIBITOR OF INTERLEUKIN-23 RECEPTOR AND USE THEREOF” (Xizang Haisco Pharmaceutical Co., Ltd., priority 2023, dated 2024).
Starred links: 1 amine or outer side, 2 acyl side, 3 side chain; linkers in the order of their positions; H or OH if unused. Positions of bridges follow the written chain, without caps; N, C: chain ends. Non-standard residues stand in square brackets, D forms with d. Residues, ends and D or L forms follow the SMILES beside them. Phe(4-OC2H4NH2,2,3-(CH2)3) = NCCOc1ccc(C[C@H](N)C(=O)O)c2c1CCC2; Trp(7-cPr) = N[C@@H](Cc1c[nH]c2c(C3CC3)cccc12)C(=O)O; Trp(7-Me) = Cc1cccc2c(C[C@H](N)C(=O)O)c[nH]c12; 2Nal = N[C@@H](Cc1ccc2ccccc2c1)C(=O)O; X1 = O=C(C(N[*:1])C1(S[*:3])CC1)[*:2]; Thp(SO2) = NC1(C(=O)O)CCS(=O)(=O)CC1; AEF = NCCOc1ccc(C[C@H](N)C(=O)O)cc1; 3Pal = N[C@@H](Cc1cccnc1)C(=O)O; Pen = CC(C)(S)[C@H](N)C(=O)O; Dab = NCC[C@H](N)C(=O)O; Thp = NC1(C(=O)O)CCOCC1; Sar = CNCC(=O)O

Columns and labels:
IL-23R = biological target: T1, IL-23R (Homo sapiens, UniProt Q5VWK5); test: IL-23R reporter gene assay (HEK-blue IL23 reporter gene cell line, rhIL23 stimulation); format: cell-based; details: Inhibition of IL-23R, rhIL23 1 ng/mL, 24 hours
T1 construct: host or cells: HEK-blue IL23 reporter gene cell line
T1 sequence (Q5VWK5 24-629): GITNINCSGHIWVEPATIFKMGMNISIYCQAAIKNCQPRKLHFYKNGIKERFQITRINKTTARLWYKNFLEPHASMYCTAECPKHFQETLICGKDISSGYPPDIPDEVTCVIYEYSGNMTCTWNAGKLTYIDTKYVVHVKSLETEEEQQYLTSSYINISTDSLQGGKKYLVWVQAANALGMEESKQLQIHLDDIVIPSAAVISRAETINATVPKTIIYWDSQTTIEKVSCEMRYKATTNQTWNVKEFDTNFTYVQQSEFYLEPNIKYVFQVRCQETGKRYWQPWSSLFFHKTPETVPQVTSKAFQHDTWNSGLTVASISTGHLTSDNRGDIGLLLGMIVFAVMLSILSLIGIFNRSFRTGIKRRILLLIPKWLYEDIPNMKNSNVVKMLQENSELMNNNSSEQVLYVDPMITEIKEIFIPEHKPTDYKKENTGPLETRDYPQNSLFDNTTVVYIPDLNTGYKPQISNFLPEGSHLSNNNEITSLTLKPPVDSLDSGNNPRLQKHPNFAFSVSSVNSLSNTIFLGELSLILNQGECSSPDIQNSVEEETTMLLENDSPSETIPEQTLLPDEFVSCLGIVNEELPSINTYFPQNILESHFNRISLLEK
Protocol: 2. IL-23R reporter gene assay
The purpose of this assay was to assess the ability of compounds to inhibit the binding of IL23p19 to IL23R in a reporter gene system. The HEK-blue IL23 reporter gene cell line (Invivogen, hkb-il23) was cultured in DMEM + 10% FBS + 100 ug/mL Normocin medium. When the cell density reached 80%-90%, 5000 cells/well were plated into a 384-well plate, and the plate was incubated overnight at 37°C with 5% CO2. Then, the compound stock solution was diluted in DMSO, and 40 nL of the dilution was transferred into the 384-well culture plate by Echo. The plate was incubated at 37°C with 5% CO2 for 0.5 hours. 40 nL/well of rhIL23 (R&D, 1290-IL) was added to the 384-well cell culture plate at a final concentration of 1 ng/mL, and the plate was incubated at 37°C with 5% CO2 for 24 hours. 18 µL of Quanti-Blue™ solution was added to a new 384-well plate. 2 µL/well of cell culture supernatant was transferred into the 384-well plate prepared in Step 6, and the plate was incubated at 37°C with 5% CO2 for 1 hour. Absorbance values at […] were read on BMG. The binding ability of the compounds was assessed using the following formula, and IC50 values were obtained by fitting with Graphpad.
(§1) Calculation formula of inhibition rate: [formula] • where Data negative: mean of DMSO control group; and • Data positive: mean of non-IL23-stimulated group
The calculation formula of IC50 was as follows: Y = Bottom + (Top−Bottom)/(1+10^(∧)((LogIC50−X)*HillSlope)) [formula] • where X: concentration of compound; and • Y: inhibition rate of compound Table 2. Inhibition of IL-23R by test compounds

IL-23α/IL-12β and IL-23R = biological target: T2, IL-23α/IL-12β and IL-23R (Homo sapiens, UniProt Q5VWK5); test: IL-23α/IL-12β and IL-23R binding assay (TR-FRET/HTRF); details: inhibition of the binding of IL-23α/IL-12β to IL-23R, TR-FRET; both proteins 0.3 nM
T2 construct: purchased ACRO ILR-H82F3 (IL-23R); ILB-H52W5 (IL-23α/IL-12β)
T2 sequence (Q5VWK5 24-353 limits assumed): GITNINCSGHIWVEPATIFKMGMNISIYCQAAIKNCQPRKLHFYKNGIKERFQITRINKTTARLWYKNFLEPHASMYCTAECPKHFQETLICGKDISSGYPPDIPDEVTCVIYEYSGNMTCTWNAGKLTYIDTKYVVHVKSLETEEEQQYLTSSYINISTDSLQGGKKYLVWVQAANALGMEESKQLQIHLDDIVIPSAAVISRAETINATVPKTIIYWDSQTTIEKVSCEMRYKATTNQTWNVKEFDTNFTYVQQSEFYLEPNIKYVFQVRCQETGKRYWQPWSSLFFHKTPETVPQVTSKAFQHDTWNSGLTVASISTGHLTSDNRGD
Method in brief: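 TR-FRET with IL-23α/IL-12β and IL-23R each at 0.3 nM in PPI buffer; compound preincubated with IL-23α/IL-12β 60 min at 25°C, then IL-23R and Tb/d2 detection reagents added for 60 min. HTRF 665/620 ratio; IC50 by nonlinear regression.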

[1] = biological target: (Homo sapiens, UniProt Q5VWK5); test: IL-23-stimulated pSTAT3 detection assay in PBMCs (ELISA); format: cell-based; details: rhIL23 stimulation 30 minutes, read-out: pSTAT3 inhibition/IC50
Sequence of (Homo sapiens, UniProt Q5VWK5) (Q9NPF7 20-189 partner, other chains not shown): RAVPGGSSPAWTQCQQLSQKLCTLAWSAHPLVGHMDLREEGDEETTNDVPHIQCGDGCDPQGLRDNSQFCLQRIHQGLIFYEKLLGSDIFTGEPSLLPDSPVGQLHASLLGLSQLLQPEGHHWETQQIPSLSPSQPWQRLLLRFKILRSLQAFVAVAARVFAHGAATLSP
Sequence of (Homo sapiens, UniProt Q5VWK5) (P29460 23-328 partner, other chains not shown): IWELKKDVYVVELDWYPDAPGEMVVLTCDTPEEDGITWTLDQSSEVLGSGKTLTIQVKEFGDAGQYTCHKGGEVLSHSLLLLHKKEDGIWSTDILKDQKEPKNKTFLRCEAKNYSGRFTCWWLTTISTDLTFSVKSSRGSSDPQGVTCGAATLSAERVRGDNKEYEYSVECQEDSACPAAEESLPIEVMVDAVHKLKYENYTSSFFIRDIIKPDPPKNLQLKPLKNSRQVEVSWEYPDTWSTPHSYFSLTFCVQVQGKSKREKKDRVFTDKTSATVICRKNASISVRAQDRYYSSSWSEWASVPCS
Protocol: 3. IL-23-stimulated pSTAT3 detection assay in PBMCs
Cryopreserved human PBMCs were thawed, and seeded onto a plate previously covered with an anti-CD3 antibody at 1 × 10^6 cells/well. Then, an anti-CD28 antibody was added to the plate, and the cells were incubated at 37°C with 5% CO2 for 5 days. On Day 5, the cells were seeded onto a 96-well plate at a density of 100K cells/well after 4 hours of stimulation by FBS starvation. The diluted Compound was transferred into the 96-well cell culture plate, and the plate was incubated at 37°C with 5% CO2 for 1 hour. rhIL23 (R&D, 1290-IL) was added to the cell culture plate, and the plate was incubated at 37°C with 5% CO2 for 30 minutes. The cells in the wells were lysed on ice with a lysis buffer containing 1× PHOSstop solution for 30 minutes, and the plate was centrifuged at 1000 rpm for 1 minute. Then, the supernatant was transferred into a 96-well ELISA plate, and pSTAT3 ELISA assay was performed according to the instructions of the kit (CST, 7300CA). Absorbance values at […] were read on PHERAstar FSX (BMG LRBTECH). The inhibition rate of the compounds was assessed using the following formula, and IC50 values were obtained by fitting with Graphpad.
as §1
The calculation formula of IC50 was as follows: Y = Bottom + (Top−Bottom)/(1+10^(∧)((LogIC50−X)*HillSlope)) [formula] • where X: concentration of compound; and • Y: inhibition rate of compound. Table 3. pSTAT3 inhibition

[2] = Pharmacokinetic test in mice (intravenous and intragastric, plasma LC-MS/MS); format: in vivo; details: male, mouse, Balb/c mice
Protocol: 4. Pharmacokinetic test in mice
4.1. Experimental animals: Male Balb/c mice (20-25 g, 18 mice/compound) were purchased from Chengdu Dossy Experimental Animals Co., Ltd.
4.2. Experimental design: On the day of the experiment, the Balb/c mice were randomly grouped by body weight. The animals were fasted with water available for 12-14 h one day before the administration, and were fed 4 h after the administration. Table 4. Administration information
Before and after administration, 0.06 mL of blood was taken from the orbit under isoflurane anaesthesia, and placed in an EDTAK2 centrifuge tube. The tube was centrifuged at 5000 rpm at 4°C for 10 min, and plasma was collected. The blood collection time points for the intravenous group and intragastric group were both 0 min, 5 min, 15 min, 30 min, 1 h, 2 h, 4 h, 6 h, 8 h, and 24 h. Before analysis and detection, all samples were stored at -80°C, and the samples were quantitatively analysed by LC-MS/MS. Table 5. Pharmacokinetic parameters of test compounds in mouse plasma

| Structure (SMILES) | IC50 (IL-23R) [nM] | IC50 (IL-23α/IL-12β and IL-23R) [nM] | IC50 [1] [nM] | AUC(0-t) ([2]; iv, i.v. (1 mg/kg)) [ng·h/mL] | clearance ([2]; iv, i.v. (1 mg/kg)) [mL/min/kg] | Vd ([2]; iv, i.v. (1 mg/kg), read-out: Vdss) [L/kg] | AUC(0-t) ([2]; po, i.g. (10 mg/kg)) [ng·h/mL] | bioavailability ([2]; po, i.g. (10 mg/kg)) [%] |
| --- | --- | --- | --- | --- | --- | --- | --- | --- |
| CC(=O)N[C@@H]1C(=O)N[C@@H](Cc2c[nH]cn2)C(=O)N[C@@H]([C@@H](C)O)C(=O)N[C@@H](Cc2c[nH]c3c(C4CC4)cccc23)C(=O)N[C@@H](CCC(N)=O)C(=O)N[C@H](C(=O)N[C@@H](Cc2ccc(OCCN)cc2)C(=O)N[C@@H](Cc2ccc3ccccc3c2)C(=O)NC2(C(=O)N[C@@H](CCC(=O)O)C(=O)N[C@@H](CC(N)=O)C(=O)N[C@@H](Cc3cccnc3)C(=O)N(C)CC(N)=O)CCOCC2)C(C)(C)SSC1(C)C [Compound 13] (Ac-[Pen]HT[Trp(7-cPr)]Q[Pen][AEF][2Nal][Thp]EN[3Pal][Sar]-NH2; disulfide 1-6) | 3.12 | 0.0384 | 0.001 | – | – | – | – | – |
| CC(=O)N[C@@H]1C(=O)N[C@@H](Cc2c[nH]cn2)C(=O)N[C@@H]([C@@H](C)O)C(=O)N[C@@H](Cc2c[nH]c3c(C)cccc23)C(=O)N[C@@H](CCC(N)=O)C(=O)N[C@H](C(=O)N[C@@H](Cc2ccc(OCCN)c3c2CCC3)C(=O)N[C@@H](Cc2ccc3ccccc3c2)C(=O)NC2(C(=O)N[C@@H](CCC(=O)O)C(=O)N[C@@H](CC(N)=O)C(=O)N[C@@H](Cc3cccnc3)C(=O)N(C)CC(N)=O)CCS(=O)(=O)CC2)C(C)(C)SSC1(C)C [Compound 15] (Ac-[Pen]HT[Trp(7-Me)]Q[Pen][Phe(4-OC2H4NH2,2,3-(CH2)3)][2Nal][Thp(SO2)]EN[3Pal][Sar]-NH2; disulfide 1-6) | 5.26 | 0.075 | 0.0062 | – | – | – | – | – |
| CC(=O)N[C@H]1CC(=O)NCC[C@@H](C(=O)N[C@@H](Cc2ccc(OCCN)cc2)C(=O)N[C@@H](Cc2ccc3ccccc3c2)C(=O)NC2(C(=O)N[C@@H](CCC(=O)O)C(=O)N[C@@H](CC(N)=O)C(=O)N[C@@H](Cc3cccnc3)C(=O)N(C)CC(N)=O)CCOCC2)NC(=O)[C@H](CCC(N)=O)NC(=O)[C@H](Cc2c[nH]c3c(C)cccc23)NC(=O)[C@H]([C@@H](C)O)NC(=O)[C@H](Cc2c[nH]cn2)NC1=O [Compound 22] (Ac-DHT[Trp(7-Me)]Q[Dab][AEF][2Nal][Thp]EN[3Pal][Sar]-NH2; lactam 1-6) | – | 0.129 | 0.0157 | – | – | – | – | – |
| CC(=O)NC1C(=O)N[C@@H](Cc2c[nH]cn2)C(=O)N[C@@H]([C@@H](C)O)C(=O)N[C@@H](Cc2c[nH]c3c(C4CC4)cccc23)C(=O)N[C@@H](CCC(N)=O)C(=O)N[C@H](C(=O)N[C@@H](Cc2ccc(OCCN)c3c2CCC3)C(=O)N[C@@H](Cc2ccc3ccccc3c2)C(=O)NC2(C(=O)N[C@@H](CCC(=O)O)C(=O)N[C@@H](CC(N)=O)C(=O)N[C@@H](Cc3cccnc3)C(=O)N(C)CC(N)=O)CCS(=O)(=O)CC2)C(C)(C)SSC12CC2 (stereo partly drawn) [Compound 24] (Ac-[X1]HT[Trp(7-cPr)]Q[Pen][Phe(4-OC2H4NH2,2,3-(CH2)3)][2Nal][Thp(SO2)]EN[3Pal][Sar]-NH2; disulfide 1-6) | 9.38 | 0.063 | – | 6770 ± 183 | 2.42 ± 0.064 | 0.225 ± 0.017 | 227 ± 139 | 0.335 ± 0.2 |
